Read-outs that look alike come from different tables or passages of the source.
Assays:
[1] = target: T1, integrin α4β7 (Homo sapiens, UniProt P13612+P26010); assay: VCAM antagonistic activity (VCAM-1/α4β7 binding assay); assay type: cell-based
T1 construct: lymphoma cell strain RPMI-8866 of human B cells, known to express integrin α4β7; endogenous in cells; host or cells: RPMI-8866 (human B lymphoma cell line)
T1 sequence (P13612 34-1032): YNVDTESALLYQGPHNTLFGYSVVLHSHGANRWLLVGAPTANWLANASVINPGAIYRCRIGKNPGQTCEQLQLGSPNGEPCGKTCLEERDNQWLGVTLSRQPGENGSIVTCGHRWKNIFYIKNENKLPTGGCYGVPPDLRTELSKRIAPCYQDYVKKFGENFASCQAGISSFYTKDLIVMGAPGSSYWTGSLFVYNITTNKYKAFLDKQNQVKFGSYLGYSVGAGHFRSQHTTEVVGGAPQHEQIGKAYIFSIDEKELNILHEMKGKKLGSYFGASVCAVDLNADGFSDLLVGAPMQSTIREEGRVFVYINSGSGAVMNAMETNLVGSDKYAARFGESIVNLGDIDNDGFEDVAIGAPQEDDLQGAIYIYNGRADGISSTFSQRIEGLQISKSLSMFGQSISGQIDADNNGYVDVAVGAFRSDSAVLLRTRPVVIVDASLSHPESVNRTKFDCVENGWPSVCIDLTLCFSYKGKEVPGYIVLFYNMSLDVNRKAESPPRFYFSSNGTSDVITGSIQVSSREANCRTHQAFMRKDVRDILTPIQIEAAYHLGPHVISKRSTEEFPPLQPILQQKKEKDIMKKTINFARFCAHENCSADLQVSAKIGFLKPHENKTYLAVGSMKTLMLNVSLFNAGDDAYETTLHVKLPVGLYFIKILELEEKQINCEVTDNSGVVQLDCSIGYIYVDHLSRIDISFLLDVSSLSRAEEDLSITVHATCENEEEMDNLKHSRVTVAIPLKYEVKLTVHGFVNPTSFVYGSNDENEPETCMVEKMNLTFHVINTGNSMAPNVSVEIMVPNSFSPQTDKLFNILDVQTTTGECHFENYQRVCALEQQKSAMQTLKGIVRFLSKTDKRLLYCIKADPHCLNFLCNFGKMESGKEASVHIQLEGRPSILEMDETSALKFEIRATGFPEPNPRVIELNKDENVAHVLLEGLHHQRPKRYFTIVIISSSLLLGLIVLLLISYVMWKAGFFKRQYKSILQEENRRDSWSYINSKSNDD
T1 sequence (P26010 20-798): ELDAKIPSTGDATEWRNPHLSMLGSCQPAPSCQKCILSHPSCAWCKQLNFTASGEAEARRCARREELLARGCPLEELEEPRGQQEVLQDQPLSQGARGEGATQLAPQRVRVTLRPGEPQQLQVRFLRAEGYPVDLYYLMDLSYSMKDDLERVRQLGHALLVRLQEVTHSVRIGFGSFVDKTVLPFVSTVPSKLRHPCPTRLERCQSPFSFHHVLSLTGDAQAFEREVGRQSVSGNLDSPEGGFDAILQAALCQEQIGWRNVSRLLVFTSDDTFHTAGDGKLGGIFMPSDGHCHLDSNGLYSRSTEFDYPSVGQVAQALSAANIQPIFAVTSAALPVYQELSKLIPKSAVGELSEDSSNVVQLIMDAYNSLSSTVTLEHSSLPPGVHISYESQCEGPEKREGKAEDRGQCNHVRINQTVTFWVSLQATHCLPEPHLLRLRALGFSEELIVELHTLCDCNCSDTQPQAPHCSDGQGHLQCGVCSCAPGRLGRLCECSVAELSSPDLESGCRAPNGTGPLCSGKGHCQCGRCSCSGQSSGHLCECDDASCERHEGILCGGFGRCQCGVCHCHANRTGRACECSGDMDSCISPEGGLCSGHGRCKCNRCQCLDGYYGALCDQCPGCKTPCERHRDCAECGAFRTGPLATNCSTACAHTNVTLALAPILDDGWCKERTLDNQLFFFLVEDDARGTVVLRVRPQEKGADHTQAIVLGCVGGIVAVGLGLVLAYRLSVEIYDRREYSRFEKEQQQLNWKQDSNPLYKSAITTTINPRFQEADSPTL
Experimental: (Test Example) VCAM Antagonistic Activity (VCAM-1/α4β7 Binding Assay):
The capacity of a test substance antagonistic to the binding of lymphoma cell strain RPMI-8866 of human B cells, known to express integrin α4β7, to VCAM-1 was determined.
(§1) 100 μl/well of a solution (500 ng/ml) of recombinant human VCAM-1 (R & D systems) solution diluted with buffer A (0.1 M NaHCO3, pH 9.6) was added to a micro titer plate having 96 wells (Nunc Maxisorp). After the incubation at 4° C. overnight, unbound VCAM-1 was removed by washing once with PBS. After completion of the washing, a buffer (buffer B) obtained by diluting Block Ace® (Dainippon Pharmaceutical Co., Ltd.) with PBS to 1/4 concentration was added in an amount of 150 μl/well. After the incubation at room temperature for 1 hour, buffer B was removed and the plate was washed with PBS once.
RPMI-8866 cells were incubated in Dulbecco modified Eagle medium containing 10 μg/ml of Calcein-AM (Wako Pure Chemical Industries, Ltd.) (SIGMA, hereinafter referred to as “DMEM”) at 37° C. for 30 minutes to label with fluorescence. The cells were again suspended in a binding buffer (20 mM HEPES, DMEM containing 0.1% BSA) containing 4 mM of MnCl2.
(§2) 50 μl of a test substance of various concentrations obtained by the dilution with the binding buffer was added to the plate. Immediately thereafter, 50 μl (final volume: 100 μl/well) of the fluorescent RPMI-8866 cells (4×10^6 cells/ml) were added thereto, and they were incubated at room temperature for 30 minutes. After the shaking on a plate shaker (IKA MTS-4) at 800 rpm for 30 seconds, the solution was immediately removed to remove the unbound cells. The fluorescence quantity of the bound cells remaining in the wells was determined with a fluorescent plate reader (Wallac 1420 ARVO multi-label counter) (filter excitation wave length: 485 nm, emission wave length: 535 nm). The fluorescent strength thus obtained is proportional to the number of RPMI-8866 cells bound to VCAM-1 and remaining on the plate. The binding rate of each test material in various concentrations was determined while the fluorescent strength of the test material-free well was determined to be 100%. The concentration IC50 for the 50% binding inhibition was calculated.
(§3) The activities were classified into group A wherein IC50 was 0.02 μmol/l or below, group B wherein IC50 was higher than 0.02 μmol/l and not above 0.1 μmol/l, group C wherein IC50 was higher than 0.1 μmol/l and not above 2 μmol/l, and group D wherein IC50 was higher than 2 μmol/l and not above 10 μmol/l.

[2] = target: T2, integrin α4β1 (Homo sapiens, UniProt P05556+P13612); assay: VCAM antagonist activity (VCAM-1/α4β1 binding assay); assay type: cell-based
T2 construct: cell strain Jurkat (ATCC TIB-152) of human T cells, known to express integrin α4β1; host or cells: Jurkat (human T cell line)
Experimental: (Test Example) VCAM Antagonist Activity (VCAM-1/α4β1 Binding Assay):
The capacity of a test substance antagonistic to the binding of cell strain Jurkat (ATCC TIB-152) of human T cells, known to express integrin α4β1, to VCAM-1 was determined.
as §1
Jurkat cells were washed with Dulbecco modified Eagle medium (SIGMA, hereinafter referred to as “DMEM”) twice and then incubated in DMEM containing 10 μg/ml of Calcein-AM (Wako Pure Chemical Industries, Ltd.) at 37° C. in dark place for 30 minutes to label with fluorescence. The cells were again suspended in a binding buffer (20 mM HEPES, DMEM containing 0.1% BSA).
as §2, with “Jurkat” for “RPMI-8866”
as §3

[3] = RPMI-8866 cells binding to VCAM-1, read-out: VCAM antagonistic activity (IC50) α4β7
[4] = Jurkat cells binding to VCAM-1, read-out: VCAM antagonistic activity (IC50) α4β1

T2 sequence (P05556 21-798, one chain of several): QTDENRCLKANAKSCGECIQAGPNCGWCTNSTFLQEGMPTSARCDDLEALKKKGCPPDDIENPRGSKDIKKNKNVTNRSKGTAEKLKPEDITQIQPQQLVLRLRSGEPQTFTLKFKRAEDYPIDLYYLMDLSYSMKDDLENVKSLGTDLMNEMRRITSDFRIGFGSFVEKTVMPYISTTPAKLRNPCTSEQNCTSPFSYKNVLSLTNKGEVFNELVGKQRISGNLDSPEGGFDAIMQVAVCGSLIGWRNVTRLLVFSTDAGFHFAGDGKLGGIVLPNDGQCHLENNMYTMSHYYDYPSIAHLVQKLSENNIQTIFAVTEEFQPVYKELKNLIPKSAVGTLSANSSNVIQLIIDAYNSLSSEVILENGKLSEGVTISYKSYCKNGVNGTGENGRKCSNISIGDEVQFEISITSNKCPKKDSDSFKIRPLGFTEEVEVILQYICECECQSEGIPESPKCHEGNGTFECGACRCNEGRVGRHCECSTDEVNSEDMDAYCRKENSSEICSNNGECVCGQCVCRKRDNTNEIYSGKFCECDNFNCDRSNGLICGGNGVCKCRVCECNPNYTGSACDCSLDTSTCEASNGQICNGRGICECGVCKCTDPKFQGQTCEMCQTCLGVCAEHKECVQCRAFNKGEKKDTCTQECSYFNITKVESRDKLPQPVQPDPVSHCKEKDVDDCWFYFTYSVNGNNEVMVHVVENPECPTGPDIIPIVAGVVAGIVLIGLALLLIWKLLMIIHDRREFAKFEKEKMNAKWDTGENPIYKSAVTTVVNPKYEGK

Row | SMILES | IC50 [1, 3] [nM] | IC50 [2, 4] [nM] | IC50 [1] [nM] | IC50 [2] [nM]
1 | COc1cccc(OC)c1-c1ccc(C[C@H](NC(=O)C(C)(C)C(=O)N(C)C)C(=O)O)cc1 [Example 105, N-[3-(dimethylamino)-2,2-dimethyl-3-oxopropanoyl]-4-(2,6-dimethoxyphenyl)-L-phenylalanine] | 20 to 100 | 100 to 2000 | – | –
2 | CCC(CC)(C(=O)N[C@@H](Cc1ccc(OCc2c(Cl)cccc2Cl)cc1)C(=O)O)C(=O)N1CC[C@H](NC(C)=O)C1 [Example 55] | < 20 | 20 to 100 | – | –
3 | CCC(CC)(C(=O)NC(Cc1ccc(OCc2c(Cl)cccc2Cl)cc1)C(=O)O)C(=O)N1CC2CC1CN2C(C)=O (stereo not shown) [Example 466] | < 20 | 20 to 100 | – | –
4 | CCC(CC)(C(=O)N[C@@H](Cc1ccc(OCc2c(Cl)cccc2Cl)cc1)C(=O)O)C(=O)N1CCC(O)CC1 [Example 49] | 20 to 100 | 100 to 2000 | – | –
5 | CCC(CC)(C(=O)N[C@@H](Cc1ccc(OCc2c(Cl)cccc2Cl)cc1)C(=O)O)C(=O)N1CC[C@H](F)C1 [Example 80] | < 20 | 100 to 2000 | – | –
6 | CCC(CC)(C(=O)N[C@@H](Cc1ccc(OCc2c(Cl)cccc2Cl)cc1)C(=O)O)C(=O)N1CCN(C(C)=O)CC1 [Example 464] | 20 to 100 | 100 to 2000 | – | –
7 | CCC(CC)(C(=O)N[C@@H](Cc1ccc(OCc2c(Cl)cccc2Cl)cc1)C(=O)O)C(=O)N1CCCNCC1 [Example 42] | 20 to 100 | 100 to 2000 | – | –
8 | CCC(CC)(C(=O)N[C@@H](Cc1ccc(OCc2c(Cl)cccc2Cl)cc1)C(=O)O)C(=O)N1CCOCC1 [Example 34] | 20 to 100 | 100 to 2000 | – | –
9 | CCCNc1ncc(Cl)c(C(=O)Nc2ccc(C[C@H](NC(=O)C(CC)(CC)C(=O)N3CCCC3)C(=O)O)cc2)n1 [Example 483] | < 20 | 20 to 100 | – | –
10 | CCC(CC)(C(=O)NC(Cc1ccc(OCc2c(Cl)cccc2Cl)cc1)C(=O)O)C(=O)N1CCCCC1C(N)=O (mixture of isomers) [Example 51] | 20 to 100 | 100 to 2000 | – | –
11 | CCC(CC)(C(=O)N[C@@H](Cc1ccc(OCc2c(Cl)cccc2Cl)cc1)C(=O)O)C(=O)N1CCC(=O)C1 [Example 69] | < 20 | 100 to 2000 | – | –
12 | CCC(CC)(C(=O)N[C@@H](Cc1ccc(OCc2c(Cl)cccc2Cl)cc1)C(=O)O)C(=O)N1CC[C@@H](NC(=O)C(F)(F)F)C1 [Example 63] | 20 to 100 | 100 to 2000 | – | –
13 | CCC(CC)(C(=O)N[C@@H](Cc1ccc(-c2c(OC)cccc2OC)cc1)C(=O)O)C(=O)N(C)C [Example 104] | 20 to 100 | 100 to 2000 | – | –
14 | CCC(CC)(C(=O)N[C@@H](Cc1ccc(OCc2c(Cl)cccc2Cl)cc1)C(=O)O)C(=O)N1CC(Br)C(Br)C1 (stereo partly drawn) [Example 79, N-(2-{[(trans-3,4-dibromopyrrolidine)-1-yl]carbonyl}-2-ethyl-butanoyl)-O-(2,6-dichlorobenzyl)-L-tyrosine] | – | – | < 20 | 100 to 2000
15 | CCC(CC)(C(=O)N[C@@H](Cc1ccc(NC(=O)c2cc(Br)ccc2Br)cc1)C(=O)O)C(=O)N1CCCC1 [Example 98] | < 20 | 20 to 100 | – | –
16 | CCC(CC)(C(=O)N[C@@H](Cc1ccc(OCc2c(Cl)cccc2Cl)cc1)C(=O)O)C(=O)N1CCN(c2ccc(O)cc2)CC1 [Example 7] | 100 to 2000 | 100 to 2000 | – | –
17 | CCC(CC)(C(=O)NCCc1ccc(O)cc1)C(=O)N[C@@H](Cc1ccc(OCc2c(Cl)cccc2Cl)cc1)C(=O)O [Example 6] | 100 to 2000 | 2000 to 10000 | – | –
18 | CCC(CCOC)(C(=O)NC(Cc1ccc(OCc2c(Cl)cccc2Cl)cc1)C(=O)O)C(=O)N1CCCC1 (mixture of isomers) [Example 43] | < 20 | 100 to 2000 | – | –
19 | CCC(CC)(C(=O)N[C@@H](Cc1ccc(NC(=O)c2cc(OC)ccc2Br)cc1)C(=O)O)C(=O)N1CCCC1 [Example 99] | 20 to 100 | 20 to 100 | – | –
20 | C#CCn1c(=O)n(-c2ccc(C[C@H](NC(=O)C(CC)(CC)C(=O)N3CCCC3)C(=O)O)cc2)c(=O)c2ccccc21 [Example 102] | < 20 | 100 to 2000 | – | –
